Test results from the COVID Moonshot data (paper PMC11187573), “Identification of SARS-CoV-2 Mpro inhibitors through deep reinforcement learning for de novo drug design and computational chemistry approaches” (RSC Medicinal Chemistry, 2024).

Assays:
[1] = biological target: SARS-CoV-2 Main Protease (SARS-CoV-2) (UniProt P0DTD1)
[2] = biological target: SARS-CoV-2 Main Protease (SARS-CoV-2) (UniProt P0DTD1); remark: listed apart in the source

Row | SMILES | inhibition ([1]; 20.0 µM) | inhibition ([1]; 50.0 µM) | inhibition ([2]; 50.0 µM) | relative solubility at 20 uM | relative solubility at 100 uM | inhibition ([2]; 20.0 µM) | IC50 [2] | IC50 [1]
1 | O=C(Cc1cccnc1)Nc1cccc(OC2CC(=O)N2)c1 (stereo unspecified) | 39.6% | 71.8% | 26.4% | 0.97 | 0.99 |  |  | 
2 | O=C(NCc1cncs1)Nc1cccc(N2CCOCC2)c1 | 5.65% | 13.6% | 23.8% | 1 | 1.01 | 0.672% |  | 
3 | C=CC(=O)N(c1ccc(C(C)(C)C)cc1)C(C(=O)NC1CC(C(=O)OC)C1)c1cccnc1 (stereo unspecified) | 5.7% | 4.24% | 0% | 0.99 | 0.98 | 0% |  | 
4 | CC(NC(=O)c1ccccc1OC1CCCCC1)c1cnccn1 (stereo unspecified) |  | 11.2% | 0% | 1 | 1 | 0% |  | 
5 | NS(=O)(=O)c1ccc(N2CCC(c3ccncc3)CC2)cc1 | 0.875% | 1.65% | 1.84% | 1 | 0.94 | 1.05% |  | 
6 | O=C(CC(=O)N1CCOCC1)Nc1ccccc1 |  | -26.9% | 0% | 1 | 1.01 | 0% |  | 
7 | O=C(c1cc(=O)[nH]c2ccc(Cl)cc12)N1CCN(S(=O)(=O)c2ccccc2)CC1 | 10.6% | 23.9% | 22.8% | 0.94 | 0.93 |  |  | 
8 | C=CC(=O)N(c1ccc(C(C)(C)C)cc1)C(C(=O)NCCCSC)c1cccnc1 (stereo unspecified) | 50.3% | 75.6% | 100% | 1 | 1 | 70% | 13.7 µM | 
9 | NS(=O)(=O)c1ccc(N2CCC(N3CCCCCC3)CC2)cc1 | -1.25% | 0.117% | 100% | 1 | 1 |  | 15.8 µM | 
10 | O=C(NCCNc1ccnc2cc(Cl)ccc12)Nc1ccc(F)cc1 | 20.4% | 29.5% | 0% | 0.99 | 0.94 | 0% |  | 
11 | C=CC(=O)N(c1cc(C)cc(N)c1)C(C(=O)NC(C)(C)C)c1cccnc1 (stereo unspecified) | -15.1% | -19.4% | 0% | 0.99 | 0.98 | 0% |  | 
12 | O=C(CCc1cnn[nH]1)NC(Cn1cccn1)c1ccccc1 (stereo unspecified) | -1.52% | -1.11% | 0% | 1 | 1 | 0% |  | 
13 | NS(=O)(=O)c1ccc(C(=O)N2Cc3ccccc3C(c3ccccc3)C2)cc1 (stereo unspecified) | 0.809% | 8.23% |  | 0.95 | 0.96 | 0% |  | 
14 | C=CC(=O)N(c1ccc(N(C)C)c(C)c1)C(C(=O)Nc1ccc(Cl)cc1)c1cccnc1 (stereo unspecified) | 4.26% | 12.1% |  | 0.88 | 0.78 | 0% |  | 
15 | Cc1nnc(C2Cc3ccccc3CN2C(=O)CCl)o1 (stereo unspecified) | 16.3% | 41.9% | 18.1% | 0.99 | 0.99 |  |  | 
16 | COc1ccccc1OCCN(C)C(=O)c1cc(=O)[nH]c2cc(F)ccc12 | -3.47% | 7.57% | 0% | 1.01 | 1 |  |  | 
17 | O=C(CCl)N1CCN(C(c2ccccc2)C2CCOCC2)CC1 (stereo unspecified) | 80.8% | 103% | 84.8% | 1 | 0.99 |  | 1.69 µM | 20.7 µM
